“Also recorded” adds a separate entry of the source. Structures can show the parent of a compound that is named as a salt.
Assays:
[1] = system: FMAL-actin/TMR-fC1-C2 interaction; assay: FLT-FRET concentration-response assay, FMAL-actin plus TMR-fC1-C2; format: binding
Experimental: (§1) Compounds identified as initial hits were further examined to determine the concentration–response curves for seven conditions ([1]): FMAL-actin alone identified actin-binding compounds that alter the FLT of FMAL-actin ([2]).
(§2) Fluorescence lifetime (FLT) measurements were acquired using a high-throughput FLT plate reader (Fluorescence Innovations, Inc) ([14], [27]), provided by Photonic Pharma LLC. […] The observed waveforms were analyzed as described previously ([15], [28]).
(§3) The primary hits were dissolved in DMSO to make a 10 mM stock solution, which was serially diluted in 96-well mother plates. Hits were screened at eight concentrations (0.5–100 μM). […] Compounds (1 μl) were transferred from the mother plates into 384-well plates using a Mosquito HV liquid handler (TTP Labtech Ltd, Hertfordshire, UK). The same procedure of dispensing as for the pilot screening was applied in the concentration-response assays. Concentration dependence of the FLT-FRET (E/EDMSO) or FLT-TMR (Δτ) change data was fit to a Hill equation only under certain conditions to help guide the eye (Fig. 4).

TMR-cC0-C2 = assay: Selleck library HTS, 532 nm excitation (FLT of TMR-cC0-C2 in presence of FMAL-actin); format: binding, human; conditions: for 532-nm Δτ, Repeat 1 / 532-nm Δτ, Repeat 2: initial screen, 30 μM compound; for 532-nm z-score (based on avg Δτ): robust z-score, hit threshold ±4, 30 μM compound
[2] = system: FMAL-actin plus TMR-cC0-C2; assay: Selleck library HTS, 473 nm excitation (FLT of FMAL-actin with TMR-cC0-C2, FLT-FRET); format: binding, human; conditions: for 473-nm Δτ, Repeat 1 / 473-nm Δτ, Repeat 2: initial screen, 30 μM compound; for 473-nm z-score (based on avg Δτ): robust z-score, hit threshold ±4, 30 μM compound
How it was run: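 Donor fluorescence lifetime was then recorded. Waveforms were fit to a single exponential, and ΔFLT was obtained after a moving-median plate-gradient correction (half-row window), rescaled by the median DMSO lifetime.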

[3] = system: TMR-fC1-C2 (C1-C2 of fast skeletal MyBP-C); assay: FLT-TMR concentration-response assay, fC1-C2; format: binding; conditions: for effect on FLT of TMR-fC1-C2 (in words): concentration-response, no actin; for cC0-C2/fC1-C2 (ratio of FLT changes) / fC1-C2 FLT change (% change from DMSO, FLT of TMR-MyBP-C): 60 μM compound
How it was run: (§4)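 Hits tested at eight concentrations (0.5–100 μM) and read on a high-throughput fluorescence lifetime plate reader. Hill fits applied only under certain conditions.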

[4] = system: TMR-cC0-C2 (C0-C2 fragment of human cMyBP-C); assay: FLT-TMR concentration-response assay (FLT of TMR on cC0-C2, no actin); format: binding; conditions: for effect on FLT of TMR-cC0-C2 (in words): concentration-response, no actin; for cC0-C2/cC0-C2#P (ratio of FLT changes) / cC0-C2 FLT change (% change from DMSO, FLT of TMR-MyBP-C): 60 μM compound
How it was run: as §4

[5] = system: FMAL-actin/TMR-cC0-C2 interaction; assay: FLT-FRET concentration-response assay, FMAL-actin plus TMR-cC0-C2; format: binding, human; conditions: for specificity of FLT-FRET effect for unphosphorylated over phosphorylated cC0-C2: effect on cC0-C2 compared to phosphorylated cC0-C2 (Tables 1 and 2); for effect on FLT-FRET / binding between FMAL-actin and TMR-cC0-C2 (in words): unphosphorylated cC0-C2
Experimental: as §1, §2, §3

[6] = system: FMAL-actin/PKA-phosphorylated TMR-cC0-C2 interaction; assay: FLT-FRET concentration-response assay, FMAL-actin plus PKA-phosphorylated TMR-cC0-C2; format: binding, human; conditions: phosphorylated cC0-C2
Experimental: as §1, §2, §3

[7] = system: rabbit fast skeletal (psoas) myofibrils; assay: Skeletal myofibril ATPase assay; format: biochemical; conditions: 50 μM compound, pCa 8 to pCa 4
Experimental: Rabbit psoas and bovine cardiac myofibrils were prepared as described in our previous study ([17]). An enzyme-coupled, NADH-linked ATPase assay was used to measure skeletal and cardiac myofibril ATPase activity in 96-well microplates at 23 °C. Ionic strength was maintained below 0.2 M, so myofilaments remained insoluble and stable ([32]). To achieve optimal enzymatic activities, buffers for skeletal and cardiac myofibrils differed slightly ([33], [34]): skeletal in 50 mM MOPS, 100 mM KCl, 5 mM MgCl2, 1 mM EGTA, pH 7.0; cardiac in 20 mM MOPS, 35 mM NaCl, 5 mM MgCl2, 1 mM EGTA, pH 7.0. Each well in the microplate contained an assay mix of 0.84 mM phosphoenolpyruvate, 0.17 mM NADH, 10 U/vol pyruvate kinase, 20 U/vol lactate dehydrogenase. The concentration of free Ca^2+ was controlled by EGTA buffering ([35]). Myofibrils were dispensed in microplates with a multichannel pipette and were incubated with assay mix plus compound of interest for 20 min at 23 °C. The concentration of myofibrils used was 0.01 mg/ml for skeletal and 0.05 mg/ml for cardiac myofibrils. The assay was started upon the addition of ATP, at a final concentration of 2.1 mM (total volume to 200 μl), and absorbance was recorded at 340 nm in a SpectraMax Plus microplate spectrophotometer from Molecular Devices. The steady-state myofibrillar ATPase rate was measured from NADH oxidation, measured as the rate of decrease in absorption at 340 nm for 30 min, with absorption data collected every 15 s. All data and statistical analysis of steady-state kinetics were conducted with the OriginPro program. The results were fitted with the Hill equation:(6) V=V0+(Vmax/1+10^−n∗^(pCa50−pCa)) where V is the ATPase rate and n is the Hill coefficient.
ATPase activity is reported on the μmol ATP/mg protein/min scale. Average data are presented as mean ± SD. Sample means are derived from three different myofibril preps (N = 3), each done in duplicate (n = 6).
The effects of compounds on ATPase activity of myofibrils were determined in the presence of 50 μM compound, across a 12-point pCa range from 4.0 (activation) to 8.0 (relaxation). The calcium sensitivity (pCa50) was determined by fitting the curves to the Hill equation. In all experiments, a 1% DMSO-only control was included. The normalized ATPase activity of the selected compounds can be found in Figure 6.

[8] = system: PKA-phosphorylated TMR-cC0-C2 (cC0-C2#P); assay: FLT-TMR concentration-response assay, PKA-phosphorylated cC0-C2; format: binding, human; conditions: for cC0-C2#P FLT change (% change from DMSO, FLT of TMR-MyBP-C): 60 μM compound
How it was run: as §4

Structure (SMILES) | effect on FLT-FRET / binding between FMAL-actin and TMR-fC1-C2 (in words) [1] | 532-nm Δτ, Repeat 1 (TMR-cC0-C2) [ns] | 532-nm Δτ, Repeat 2 (TMR-cC0-C2) [ns] | 532-nm z-score (based on avg Δτ) (TMR-cC0-C2) | 473-nm Δτ, Repeat 1 [2] [ns] | 473-nm Δτ, Repeat 2 [2] [ns] | 473-nm z-score (based on avg Δτ) [2] | effect on FLT of TMR-fC1-C2 (in words) [3] | effect on FLT of TMR-cC0-C2 (in words) [4] | specificity of FLT-FRET effect for unphosphorylated over phosphorylated cC0-C2 [5] | effect on FLT-FRET / binding between FMAL-actin and TMR-cC0-C2 (in words) [5] | effect on FLT-FRET / binding between FMAL-actin and PKA-phosphorylated TMR-cC0-C2 (in words) [6] | effect on skeletal MF ATPase activity (in words) [7] | other results
CCN(C(=O)c1c(O)c2c(Cl)cccc2n(C)c1=O)c1ccccc1 [Laquinimod] | decreased | -0.017 | -0.016 | -0.99 | 0.109 | 0.071 | 5.08 | do not affect | do not affect | stronger reduction of FRET with non-phosphorylated than phosphorylated | decreased | decreased | – | –
O=C(Nc1cccc2c(=O)cc(-c3nnn[nH]3)oc12)c1ccc(OCCCCc2ccccc2)cc1 [Pranlukast] | – | 0.073 | 0.116 | 5.80 | 0.061 | 0.008 | 1.95 | – | – | – | – | – | affected | effect on skeletal MF ATPase activity (in words) ([7]; listed as Pranleukast): affected ATPase; cC0-C2#P FLT change (% change from DMSO, FLT of TMR-MyBP-C) [8]: 50.1%; cC0-C2/fC1-C2 (ratio of FLT changes) [3]: 0.6; fC1-C2 FLT change (% change from DMSO, FLT of TMR-MyBP-C) [3]: 50.3%; cC0-C2/cC0-C2#P (ratio of FLT changes) [4]: 0.6; cC0-C2 FLT change (% change from DMSO, FLT of TMR-MyBP-C) [4]: 30.7%
CCC(C)(Oc1ccc(C2(c3ccc(OC(C)(CC)C(=O)O)cc3)CCCCC2)cc1)C(=O)O (centres unmarked) [Clinofibrate] | decreased | 0.006 | 0.016 | 0.70 | 0.090 | 0.075 | 4.65 | do not affect | do not affect | stronger reduction of FRET with non-phosphorylated than phosphorylated | decreased | decreased | – | –
CO/N=C(\C(=O)N[C@@H]1C(=O)N2C(C(=O)O)=C(C[N+]3(C)CCCC3)CS[C@H]12)c1csc(N)n1 [Cefepime dihydrochloride monohydrate] | – | 0.006 | -0.096 | -2.70 | 0.127 | 0.102 | 6.43 | – | – | – | – | – | affected ATPase | reduction in actin binding (fC1-C2-actin FRET) ([1]; skeletal MyBP-C): 13%; effects on actin binding (FRET) ([5]; range over cC0-C2, phosphorylated cC0-C2 and fC1-C2): 13–35%
COC(=O)N[C@H](C(=O)N1CCC[C@H]1c1nc(-c2ccc3c(c2)O[C@@H](c2ccccc2)n2c-3cc3cc(-c4c[nH]c([C@@H]5CCCN5C(=O)[C@@H](NC(=O)OC)C(C)C)n4)ccc32)c[nH]1)C(C)C [Elbasvir] | decreased | -0.002 | 0.011 | 0.31 | 0.142 | 0.080 | 6.24 | do not affect | do not affect | 5 fold | decreased | decreased | – | –
CC(C(=O)O)c1ccc2c(c1)CC(=O)c1ccccc1S2 (centres unmarked) [Zaltoprofen] | decreased | -0.015 | 0.015 | 0.04 | 0.113 | 0.083 | 5.52 | do not affect | do not affect | stronger reduction of FRET with non-phosphorylated than phosphorylated | decreased | decreased | – | –
C#Cc1cccc(Nc2ncnc3cc(OCCOC)c(OCCOC)cc23)c1 [Erlotinib] | – | 0.100 | 0.119 | 6.74 | 0.026 | 0.001 | 0.78 | increases | increases; also recorded: affect | – | decrease | – | affected; also recorded: affect skeletal muscle ATPase | cC0-C2#P FLT change (% change from DMSO, FLT of TMR-MyBP-C) [8]: 9.7%; effect on FLT of PKA-phosphorylated TMR-cC0-C2 (in words) ([8]; concentration-response, no actin): increases; cC0-C2/fC1-C2 (ratio of FLT changes) [3]: 1.2; fC1-C2 FLT change (% change from DMSO, FLT of TMR-MyBP-C) [3]: 8.5%; cC0-C2/cC0-C2#P (ratio of FLT changes) [4]: 1.0; cC0-C2 FLT change (% change from DMSO, FLT of TMR-MyBP-C) [4]: 9.8%
